In ChEMBL document CHEMBL1201862, “PubChem BioAssay data set” (2004):
One block for each compound: values may come before it. Active and inactive are the calls of the source.

Experiments:
[1] = biological target: Serine/threonine-protein kinase PAK 1 (Homo sapiens, UniProt Q13153); assay type: functional
[2] = biological target: Tyrosine-protein kinase Lyn (Homo sapiens, UniProt P07948); assay type: functional;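 also: lyn as one member of a kinase panel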
[3] = biological target: Vascular endothelial growth factor receptor 3 (Homo sapiens, UniProt P35916); assay type: functional;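 also: value from a kinome-wide profiling panel, with FLT4 as the panel member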
Chain of Vascular endothelial growth factor receptor 3 (P35916 whole entry): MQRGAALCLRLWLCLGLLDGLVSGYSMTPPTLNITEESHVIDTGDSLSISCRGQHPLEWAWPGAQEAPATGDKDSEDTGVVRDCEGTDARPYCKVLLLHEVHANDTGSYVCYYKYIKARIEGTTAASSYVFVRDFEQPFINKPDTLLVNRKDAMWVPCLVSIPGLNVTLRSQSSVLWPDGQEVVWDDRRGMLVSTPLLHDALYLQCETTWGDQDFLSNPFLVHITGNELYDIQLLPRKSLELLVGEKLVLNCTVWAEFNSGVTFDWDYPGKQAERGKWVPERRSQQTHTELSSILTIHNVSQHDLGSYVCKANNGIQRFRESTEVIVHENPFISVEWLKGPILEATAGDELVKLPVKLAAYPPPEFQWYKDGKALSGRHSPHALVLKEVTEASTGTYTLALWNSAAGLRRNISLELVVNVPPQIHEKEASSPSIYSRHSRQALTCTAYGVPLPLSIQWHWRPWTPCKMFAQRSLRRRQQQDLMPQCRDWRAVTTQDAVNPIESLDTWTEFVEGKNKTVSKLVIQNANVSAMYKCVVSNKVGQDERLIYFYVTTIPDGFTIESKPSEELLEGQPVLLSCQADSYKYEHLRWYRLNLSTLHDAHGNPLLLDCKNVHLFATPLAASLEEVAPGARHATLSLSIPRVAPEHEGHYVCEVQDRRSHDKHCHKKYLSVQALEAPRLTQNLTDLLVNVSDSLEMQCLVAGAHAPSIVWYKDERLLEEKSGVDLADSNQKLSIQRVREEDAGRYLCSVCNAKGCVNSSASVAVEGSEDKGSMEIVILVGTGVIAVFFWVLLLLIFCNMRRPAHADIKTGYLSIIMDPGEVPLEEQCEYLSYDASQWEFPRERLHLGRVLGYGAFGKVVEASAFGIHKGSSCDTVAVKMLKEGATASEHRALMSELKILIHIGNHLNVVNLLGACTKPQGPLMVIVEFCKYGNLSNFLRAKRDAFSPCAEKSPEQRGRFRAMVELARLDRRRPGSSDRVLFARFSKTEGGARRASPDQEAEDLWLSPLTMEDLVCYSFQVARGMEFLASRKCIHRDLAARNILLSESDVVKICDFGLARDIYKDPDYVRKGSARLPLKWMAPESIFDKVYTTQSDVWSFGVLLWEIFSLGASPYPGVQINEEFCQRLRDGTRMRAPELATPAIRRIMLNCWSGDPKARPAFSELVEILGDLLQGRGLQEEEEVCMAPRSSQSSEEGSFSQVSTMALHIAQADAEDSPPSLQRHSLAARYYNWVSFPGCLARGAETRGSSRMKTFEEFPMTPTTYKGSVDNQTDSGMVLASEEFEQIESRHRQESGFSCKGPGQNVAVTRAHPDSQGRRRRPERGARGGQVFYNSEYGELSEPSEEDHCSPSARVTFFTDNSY

[4] = biological target: Fibroblast growth factor receptor 3 (Homo sapiens, UniProt P22607); assay type: functional
[5] = biological target: Serine/threonine-protein kinase Nek2 (Homo sapiens, UniProt P51955); assay type: functional
[6] = biological target: Glycogen synthase kinase-3 alpha (Homo sapiens, UniProt P49840); assay type: functional;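 also: GSK3A result taken from a broad kinome-wide kinase panel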
[7] = biological target: Mitogen-activated protein kinase 1 (Homo sapiens, UniProt P28482); assay type: functional
Chain of Mitogen-activated protein kinase 1 (P28482 whole entry): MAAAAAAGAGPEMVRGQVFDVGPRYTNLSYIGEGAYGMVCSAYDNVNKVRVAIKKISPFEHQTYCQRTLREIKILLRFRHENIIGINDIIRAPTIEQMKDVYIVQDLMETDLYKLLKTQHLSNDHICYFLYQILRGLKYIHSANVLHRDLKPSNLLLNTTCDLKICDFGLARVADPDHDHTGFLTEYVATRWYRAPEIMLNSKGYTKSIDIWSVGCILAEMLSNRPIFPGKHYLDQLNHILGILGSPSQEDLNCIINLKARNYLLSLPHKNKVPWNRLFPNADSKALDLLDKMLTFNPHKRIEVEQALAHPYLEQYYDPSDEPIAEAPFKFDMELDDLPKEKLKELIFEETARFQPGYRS

[8] = biological target: Vascular endothelial growth factor receptor 2 (Homo sapiens, UniProt P35968); assay type: functional
[9] = biological target: Non-receptor tyrosine-protein kinase TYK2 (Homo sapiens, UniProt P29597); assay type: functional
[10] = biological target: Macrophage colony-stimulating factor 1 receptor (Homo sapiens, UniProt P07333); assay type: functional;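 also: value comes from the Navigating the Kinome screening panel, CSF1R member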
Chain of Macrophage colony-stimulating factor 1 receptor (P07333 whole entry): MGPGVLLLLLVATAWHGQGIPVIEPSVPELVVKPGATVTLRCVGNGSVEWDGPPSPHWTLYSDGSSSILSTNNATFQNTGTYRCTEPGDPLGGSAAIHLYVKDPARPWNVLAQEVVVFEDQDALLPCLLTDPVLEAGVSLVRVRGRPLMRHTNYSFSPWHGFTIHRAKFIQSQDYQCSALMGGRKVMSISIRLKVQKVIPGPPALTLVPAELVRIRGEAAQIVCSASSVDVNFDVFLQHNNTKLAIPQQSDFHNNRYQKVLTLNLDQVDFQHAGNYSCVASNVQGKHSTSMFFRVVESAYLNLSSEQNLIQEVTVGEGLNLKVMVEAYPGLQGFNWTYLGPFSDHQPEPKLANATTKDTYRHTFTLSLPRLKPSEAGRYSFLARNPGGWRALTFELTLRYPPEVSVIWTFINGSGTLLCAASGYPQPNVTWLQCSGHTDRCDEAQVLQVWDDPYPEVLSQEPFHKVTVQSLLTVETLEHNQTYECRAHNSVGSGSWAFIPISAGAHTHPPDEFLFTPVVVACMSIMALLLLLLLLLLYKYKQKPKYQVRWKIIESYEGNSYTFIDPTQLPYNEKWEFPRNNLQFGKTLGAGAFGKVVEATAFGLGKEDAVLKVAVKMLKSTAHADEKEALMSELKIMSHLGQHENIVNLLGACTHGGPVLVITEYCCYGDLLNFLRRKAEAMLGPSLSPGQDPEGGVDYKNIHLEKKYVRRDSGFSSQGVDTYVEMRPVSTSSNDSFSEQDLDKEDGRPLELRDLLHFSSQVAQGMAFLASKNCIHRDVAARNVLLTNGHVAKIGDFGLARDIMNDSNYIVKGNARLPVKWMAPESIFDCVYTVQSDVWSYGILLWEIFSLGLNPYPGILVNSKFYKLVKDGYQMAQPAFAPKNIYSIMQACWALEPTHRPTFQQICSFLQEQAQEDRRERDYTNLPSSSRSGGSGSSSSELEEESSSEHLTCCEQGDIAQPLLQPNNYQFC

[11] = biological target: Serine/threonine-protein kinase pim-2 (Homo sapiens, UniProt Q9P1W9); assay type: functional;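 also: value comes from a broad kinase panel profiling study in which PIM2 was one of the panel members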
[12] = biological target: Serine/threonine-protein kinase D2 (Homo sapiens, UniProt Q9BZL6); assay type: functional;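 also: measured against PRKD2 as one member of a kinome-wide kinase profiling panel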
[13] = biological target: High affinity nerve growth factor receptor (Homo sapiens, UniProt P04629); assay type: functional;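 also: NTRK1 tested as one member of a kinome-wide profiling panel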
[14] = biological target: Glycogen synthase kinase-3 beta (Homo sapiens, UniProt P49841); assay type: functional;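 also: value comes from a broad kinome profiling panel, with GSK3B as the panel member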
Chain of Glycogen synthase kinase-3 beta (P49841 whole entry): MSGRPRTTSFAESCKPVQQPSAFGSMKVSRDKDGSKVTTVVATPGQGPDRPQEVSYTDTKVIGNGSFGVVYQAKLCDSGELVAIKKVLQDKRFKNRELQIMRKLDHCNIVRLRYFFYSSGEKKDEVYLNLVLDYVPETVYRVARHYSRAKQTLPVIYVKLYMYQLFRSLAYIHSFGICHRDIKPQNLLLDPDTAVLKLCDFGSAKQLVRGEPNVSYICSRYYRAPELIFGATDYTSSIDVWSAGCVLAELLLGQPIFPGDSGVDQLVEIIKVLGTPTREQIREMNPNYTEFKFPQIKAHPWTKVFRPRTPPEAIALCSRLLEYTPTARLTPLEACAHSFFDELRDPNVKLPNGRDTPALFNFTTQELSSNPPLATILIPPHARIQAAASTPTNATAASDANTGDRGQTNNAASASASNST

[15] = biological target: Serine/threonine-protein kinase PAK 4 (Homo sapiens, UniProt O96013); assay type: functional;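 also: value obtained within a kinome profiling panel in which PAK4 was one of the panel members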
[16] = biological target: Serine/threonine-protein kinase PLK4 (Homo sapiens, UniProt O00444); assay type: functional;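 also: PLK4 measured as one member of a kinome-wide kinase profiling panel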
[17] = biological target: Inhibitor of nuclear factor kappa-B kinase subunit beta (Homo sapiens, UniProt O14920); assay type: functional
[18] = biological target: Proto-oncogene tyrosine-protein kinase Src (Homo sapiens, UniProt P12931); assay type: functional;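 also: SRC entry within a kinome-wide kinase profiling panel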
[19] = biological target: Serine/threonine-protein kinase 3 (Homo sapiens, UniProt Q13188); assay type: functional;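 also: measured as one member of a kinome-wide kinase panel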
[20] = biological target: Mitogen-activated protein kinase 13 (Homo sapiens, UniProt O15264); assay type: functional
[21] = biological target: Rho-associated protein kinase 1 (Homo sapiens, UniProt Q13464); assay type: functional;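 also: measured within a broad kinome-wide panel profiling many kinases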
Chain of Rho-associated protein kinase 1 (Q13464 whole entry): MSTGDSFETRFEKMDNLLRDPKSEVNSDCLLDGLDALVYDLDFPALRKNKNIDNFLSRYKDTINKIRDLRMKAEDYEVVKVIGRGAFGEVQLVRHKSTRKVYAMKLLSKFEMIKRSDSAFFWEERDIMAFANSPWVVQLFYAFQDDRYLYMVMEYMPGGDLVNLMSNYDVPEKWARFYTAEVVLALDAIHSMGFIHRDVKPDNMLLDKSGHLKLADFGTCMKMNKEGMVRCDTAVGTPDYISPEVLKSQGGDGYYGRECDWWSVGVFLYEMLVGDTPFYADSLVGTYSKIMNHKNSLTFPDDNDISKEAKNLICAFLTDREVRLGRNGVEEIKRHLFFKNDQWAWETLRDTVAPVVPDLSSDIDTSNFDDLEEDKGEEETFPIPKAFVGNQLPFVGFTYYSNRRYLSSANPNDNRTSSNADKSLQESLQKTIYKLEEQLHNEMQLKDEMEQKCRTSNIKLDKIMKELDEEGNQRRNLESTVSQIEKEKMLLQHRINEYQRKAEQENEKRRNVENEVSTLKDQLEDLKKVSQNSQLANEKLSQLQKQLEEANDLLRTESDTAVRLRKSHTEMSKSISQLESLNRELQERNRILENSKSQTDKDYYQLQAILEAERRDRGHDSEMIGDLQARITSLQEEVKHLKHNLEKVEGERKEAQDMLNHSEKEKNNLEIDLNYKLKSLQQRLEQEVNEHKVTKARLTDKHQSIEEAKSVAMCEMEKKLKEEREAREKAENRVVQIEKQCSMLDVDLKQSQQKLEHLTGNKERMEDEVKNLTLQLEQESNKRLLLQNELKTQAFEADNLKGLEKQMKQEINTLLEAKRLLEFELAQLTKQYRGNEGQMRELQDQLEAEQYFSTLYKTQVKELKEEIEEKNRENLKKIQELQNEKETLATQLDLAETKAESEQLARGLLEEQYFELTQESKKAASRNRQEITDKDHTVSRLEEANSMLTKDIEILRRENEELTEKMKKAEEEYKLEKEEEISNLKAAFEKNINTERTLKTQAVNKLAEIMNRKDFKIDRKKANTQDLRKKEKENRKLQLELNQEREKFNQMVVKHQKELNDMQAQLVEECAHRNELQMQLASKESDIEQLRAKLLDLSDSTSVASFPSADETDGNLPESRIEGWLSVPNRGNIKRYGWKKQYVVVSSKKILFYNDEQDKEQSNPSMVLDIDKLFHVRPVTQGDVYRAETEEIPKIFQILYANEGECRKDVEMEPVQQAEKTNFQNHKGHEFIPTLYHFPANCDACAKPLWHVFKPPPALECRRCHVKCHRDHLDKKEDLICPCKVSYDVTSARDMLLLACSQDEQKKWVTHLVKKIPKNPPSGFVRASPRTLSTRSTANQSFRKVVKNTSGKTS

[22] = biological target: Cyclin-dependent kinase 5 (Homo sapiens, UniProt Q00535); assay type: functional;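 also: CDK5 measured as one member of a kinase profiling panel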
[23] = biological target: Mitogen-activated protein kinase 9 (Homo sapiens, UniProt P45984); assay type: functional;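 also: value from a kinome panel profiling assay, MAPK9 panel entry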
Chain of Mitogen-activated protein kinase 9 (P45984 whole entry): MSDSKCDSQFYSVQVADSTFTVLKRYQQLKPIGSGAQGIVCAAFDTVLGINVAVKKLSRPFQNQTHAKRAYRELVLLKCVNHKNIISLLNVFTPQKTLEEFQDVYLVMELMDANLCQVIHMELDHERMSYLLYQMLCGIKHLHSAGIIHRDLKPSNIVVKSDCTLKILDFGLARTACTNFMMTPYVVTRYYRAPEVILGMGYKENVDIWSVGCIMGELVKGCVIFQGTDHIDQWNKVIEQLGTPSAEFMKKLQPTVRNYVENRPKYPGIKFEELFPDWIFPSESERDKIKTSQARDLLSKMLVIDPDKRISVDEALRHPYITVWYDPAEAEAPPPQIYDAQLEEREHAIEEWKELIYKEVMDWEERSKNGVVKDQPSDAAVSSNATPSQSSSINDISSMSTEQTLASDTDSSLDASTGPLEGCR

[24] = biological target: Tyrosine-protein kinase Lck (Homo sapiens, UniProt P06239); assay type: functional;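 also: lck was assayed as one member of a kinase panel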
[25] = biological target: Casein kinase I isoform delta (Homo sapiens, UniProt P48730); assay type: functional;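 also: measured as one member (CSNK1D) of a kinome panel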
[26] = biological target: T1, Rac GTPase-activating protein 1 (Homo sapiens, UniProt Q9H0H5); assay: blockers of MgcRacGAP-driven Rac1 GTP hydrolysis – biochemical, ADP Hunter fluorescence, primary and confirmatory, confirmation (AID 624330); assay type: functional
T1 sequence (Q9H0H5 whole entry): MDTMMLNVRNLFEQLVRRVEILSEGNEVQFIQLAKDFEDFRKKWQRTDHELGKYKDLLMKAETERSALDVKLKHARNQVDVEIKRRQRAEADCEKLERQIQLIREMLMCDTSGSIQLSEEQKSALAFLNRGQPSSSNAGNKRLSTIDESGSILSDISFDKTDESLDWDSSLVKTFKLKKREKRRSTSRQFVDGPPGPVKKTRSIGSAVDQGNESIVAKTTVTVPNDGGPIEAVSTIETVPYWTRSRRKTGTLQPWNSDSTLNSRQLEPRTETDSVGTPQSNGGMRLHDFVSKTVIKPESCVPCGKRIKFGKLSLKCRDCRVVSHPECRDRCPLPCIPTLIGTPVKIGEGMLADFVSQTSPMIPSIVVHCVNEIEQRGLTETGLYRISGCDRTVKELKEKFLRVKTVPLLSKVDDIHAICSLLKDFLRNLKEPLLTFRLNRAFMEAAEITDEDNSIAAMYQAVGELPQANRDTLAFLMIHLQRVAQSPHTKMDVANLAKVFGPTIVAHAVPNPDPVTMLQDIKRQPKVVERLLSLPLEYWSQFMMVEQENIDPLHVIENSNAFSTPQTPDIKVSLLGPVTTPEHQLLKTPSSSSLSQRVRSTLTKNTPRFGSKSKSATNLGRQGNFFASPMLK

[27] = biological target: Small ubiquitin-related modifier 1 (Homo sapiens, UniProt P63165); assay: SUMO1 protein interaction blockers, potency – biochemical, fluorescence polarization, uHTS hits, dose response (AID 624382); assay type: functional; conditions: read-out: IC50_Mean
Chain of Small ubiquitin-related modifier 1 (P63165 whole entry): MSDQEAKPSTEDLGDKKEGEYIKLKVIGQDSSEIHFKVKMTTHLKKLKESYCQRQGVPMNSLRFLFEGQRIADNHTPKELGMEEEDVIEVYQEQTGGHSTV

INS1 = assay: INS-1E survival protection against cytokine death – cell-based, luminescence, retest, dose response (AID 449756); assay type: functional; conditions: Rattus norvegicus;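 also: cell death triggered by IL-1 beta plus TNF-alpha plus IFN-gamma mixture; protective hits raise ATP signal compared with cytokine alone wells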
[28] = reduced cellular PGC1a acetyl-lysine signal – cell-based, cherry-picked samples, dose response (AID 720514); assay type: functional;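 also: potency may reflect raised or lowered acetylation signal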
BJ [29] = assay: cells; assay type: functional, cell-based; conditions: Homo sapiens
BJ [30] = assay: BJ-TERT fibroblast viability loss – cell-based, RAS-independent, luminescence, dose response (AID 1933); assay type: functional; conditions: Homo sapiens

Ki [1]: 0.398 µM (active) | Ki [2]: > 1.58 µM (inactive) | Ki [3]: > 6.31 µM (inactive) | Ki [4]: > 2 µM (inactive) | Ki [5]: 3.16 µM (active) | Ki [6]: > 7.94 µM (inactive) | Ki [7]: > 7.94 µM (inactive) | Ki [8]: > 7.94 µM (inactive) | Ki [9]: 2 µM (active) | Ki [10]: > 2.51 µM (inactive) | Ki [11]: 0.2 µM (active) | Ki [12]: 0.631 µM (active) | Ki [13]: > 2.51 µM (inactive) | Ki [14]: > 6.31 µM (inactive) | Ki [15]: 2.51 µM (active) | Ki [16]: > 3.98 µM (inactive) | Ki [17]: > 3.16 µM (inactive) | Ki [18]: > 5.01 µM (inactive) | Ki [19]: 0.501 µM (active) | Ki [20]: > 7.94 µM (inactive) | Ki [21]: 0.501 µM (active) | Ki [22]: 2 µM (active) | Ki [23]: > 3.98 µM (inactive) | Ki [24]: > 2.51 µM (inactive) | Ki [25]: > 7.94 µM (inactive)
SMILES: CC(=NNC(=N)N)c1cc(NC(=O)NCCCCCCNC(=O)Nc2cc(C(C)=NNC(=N)N)cc(C(C)=NNC(=N)N)c2)cc(C(C)=NNC(=N)N)c1

SMILES: Cc1cc(N)c2cc(NC(=O)/C=C/c3ccccc3Cl)ccc2n1
IC50 [26]: 23.7 µM (active) | IC50 [27]: > 66.6 µM (inactive) | AC50 (INS1): 3.83 µM (active) | AC50 [28]: 1.97 µM (active) | EC50 (BJ [29]): 4.79 µM (inconclusive) | EC50 (BJ [30]): 2.62 µM (inconclusive)
